A value given as a limit tells only on which side of the number the result lay.

Here are results for 20 compounds from ChEMBL document CHEMBL1131519, “1,2-Benzisothiazol-3-one 1,1-dioxide inhibitors of human mast cell tryptase” (J Med Chem, 1998).

One experiment deals with Tryptase (Homo sapiens, UniProt Q9BZJ3+Q15661+Q9NRR2). Put plainly: Inhibitory activity was measured against human mast cell tryptase. It is filed as protein assay.
Another experiment addresses Coagulation factor X (Homo sapiens, UniProt P00742). The experiment is described as follows: Inhibitory activity was measured against Coagulation factor X.
Another experiment concerns the target T1, Neutrophil elastase (Homo sapiens, UniProt P08246).
T1 sequence (P08246 whole entry): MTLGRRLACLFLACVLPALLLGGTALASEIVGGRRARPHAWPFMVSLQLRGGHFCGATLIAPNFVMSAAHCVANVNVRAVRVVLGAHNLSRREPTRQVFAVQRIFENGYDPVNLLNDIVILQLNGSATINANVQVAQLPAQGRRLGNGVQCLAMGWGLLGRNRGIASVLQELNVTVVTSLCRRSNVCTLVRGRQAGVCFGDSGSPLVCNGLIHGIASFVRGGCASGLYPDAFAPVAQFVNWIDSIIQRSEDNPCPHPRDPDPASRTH
Put plainly: Inhibitory activity was measured against human leukocyte elastase.

The next experiment deals with Prothrombin (Homo sapiens, UniProt P00734). The experiment is described as follows: Inhibitory activity was measured against thrombin.
The target of another experiment is Plasminogen (Homo sapiens, UniProt P00747). Put plainly: Inhibitory activity was measured against plasmin.
Sequence of Plasminogen (P00747 97-580 limits assumed): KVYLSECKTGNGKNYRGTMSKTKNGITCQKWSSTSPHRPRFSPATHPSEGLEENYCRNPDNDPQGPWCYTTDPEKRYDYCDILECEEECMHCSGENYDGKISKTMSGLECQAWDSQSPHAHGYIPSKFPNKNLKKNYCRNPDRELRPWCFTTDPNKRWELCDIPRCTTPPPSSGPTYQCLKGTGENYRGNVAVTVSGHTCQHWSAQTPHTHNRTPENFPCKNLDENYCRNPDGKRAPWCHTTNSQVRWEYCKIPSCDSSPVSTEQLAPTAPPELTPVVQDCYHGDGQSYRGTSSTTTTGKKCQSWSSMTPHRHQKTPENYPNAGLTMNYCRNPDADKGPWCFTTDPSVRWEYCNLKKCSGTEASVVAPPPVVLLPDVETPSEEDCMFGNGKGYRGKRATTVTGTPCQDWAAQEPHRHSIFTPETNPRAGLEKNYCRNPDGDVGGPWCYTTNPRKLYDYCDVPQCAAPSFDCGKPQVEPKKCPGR
Sequence of Plasminogen (P00747 581-810 limits assumed): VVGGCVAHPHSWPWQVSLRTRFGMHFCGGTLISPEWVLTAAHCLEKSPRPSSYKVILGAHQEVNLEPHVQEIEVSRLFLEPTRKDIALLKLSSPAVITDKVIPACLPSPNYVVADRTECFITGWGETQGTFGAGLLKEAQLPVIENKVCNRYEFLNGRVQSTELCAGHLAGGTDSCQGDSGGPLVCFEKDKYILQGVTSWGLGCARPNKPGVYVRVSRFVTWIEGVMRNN
The target in experiment [1] is Urokinase-type plasminogen activator (Homo sapiens, UniProt P00749). The experiment is described as follows: Inhibitory activity was measured against urokinase.

Sequence of Coagulation factor X (P00742 41-179 limits assumed): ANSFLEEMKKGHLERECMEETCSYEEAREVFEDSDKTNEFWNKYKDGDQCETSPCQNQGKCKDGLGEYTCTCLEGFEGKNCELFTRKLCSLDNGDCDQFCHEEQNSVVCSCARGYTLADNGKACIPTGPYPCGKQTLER
Sequence of Coagulation factor X (P00742 235-488 limits assumed): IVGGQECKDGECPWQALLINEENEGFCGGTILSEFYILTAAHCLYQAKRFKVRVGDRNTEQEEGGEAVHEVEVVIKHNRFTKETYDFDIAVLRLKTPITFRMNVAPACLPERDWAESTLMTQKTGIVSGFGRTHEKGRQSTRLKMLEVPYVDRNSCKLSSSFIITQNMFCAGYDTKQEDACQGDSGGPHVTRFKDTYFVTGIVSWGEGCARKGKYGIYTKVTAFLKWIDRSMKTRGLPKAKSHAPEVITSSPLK

`O=C(CCNC(=O)OCc1ccccc1)NCCC(=O)OCN1C(=O)c2ccccc2S1(=O)=O`: the IC50 on Tryptase was over 33000 nM.

Consider `O=C(CCCNC(=O)OCc1ccccc1)OCN1C(=O)c2ccccc2S1(=O)=O`, for which the IC50 on Tryptase is 349 nM.

Consider `O=C(NCc1ccccc1)Nc1ccc(C(=O)OCN2C(=O)c3ccccc3S2(=O)=O)cc1`, for which the IC50 against Tryptase is 950 nM.

With `O=C(NCc1ccc(C(=O)OCN2C(=O)c3ccccc3S2(=O)=O)cc1)OCc1ccccc1`, the IC50 against Tryptase worked out at 352 nM.

The compound `CC(C)(C)OC(=O)N[C@@H](CCCCNC(=O)OCc1ccccc1)C(=O)OCN1C(=O)c2ccccc2S1(=O)=O` registered an IC50 against Tryptase of 352 nM.

For the compound `O=C(CCCCNC(=O)OCc1ccccc1)OCN1C(=O)c2ccccc2S1(=O)=O`, the IC50 on Coagulation factor X was over 33000 nM; on Neutrophil elastase, 1440 nM; at Prothrombin, over 33000 nM; against Plasminogen it was 33000 nM; in experiment [1], over 33000 nM; on Tryptase it was 110 nM.

As for `CC(C)(C)OC(=O)NCCCCCC(=O)OCN1C(=O)c2ccccc2S1(=O)=O`, the IC50 at Tryptase came to 5370 nM.

In turn, `Nc1ccc(C(=O)OCN2C(=O)c3ccccc3S2(=O)=O)cc1` displayed an IC50 at Tryptase of over 33000 nM.

As to `O=C(Cc1ccccc1)NCc1ccc(C(=O)OCN2C(=O)c3ccccc3S2(=O)=O)cc1`, the IC50 at Tryptase was determined as 132 nM.

As to `O=C(NCCc1ccccc1)c1ccc(C(=O)OCN2C(=O)c3ccccc3S2(=O)=O)cc1`, the IC50 at Tryptase worked out at 679 nM.

Regarding `O=C(NCc1ccc(C(=O)OCN2C(=O)c3ccccc3S2(=O)=O)cc1)Nc1ccccc1`, at Tryptase, the IC50 was 157 nM.

With `O=C(NCc1ccc(C(=O)OCN2C(=O)c3ccccc3S2(=O)=O)cc1)Oc1ccccc1`, on Tryptase, the IC50 turned out to be 630 nM.

On to `O=C(CCNC(=O)OCc1ccccc1)OCN1C(=O)c2ccccc2S1(=O)=O`, for which the IC50 against Coagulation factor X is over 33000 nM; at Neutrophil elastase, 2260 nM; on Prothrombin, over 33000 nM; at Plasminogen it was over 33000 nM; in experiment [1] it was over 33000 nM; against Tryptase, 854 nM.

On Tryptase, `O=C(CNC(=O)OCc1ccccc1)OCN1C(=O)c2ccccc2S1(=O)=O` yielded an IC50 of 6940 nM.

As for `O=C(OCN1C(=O)c2ccccc2S1(=O)=O)c1ccc(OCCOc2ccccc2)cc1`, the IC50 against Tryptase was over 33000 nM.

For the compound `O=C(CCCCCNC(=O)OCc1ccccc1)OCN1C(=O)c2ccccc2S1(=O)=O`, the IC50 against Tryptase was determined as 436 nM.

In turn, `O=C(Nc1cccc(C(=O)OCN2C(=O)c3ccccc3S2(=O)=O)c1)OCc1ccccc1` yielded an IC50 against Tryptase of over 33000 nM.

For `O=C(CCc1ccccc1)Nc1ccc(C(=O)OCN2C(=O)c3ccccc3S2(=O)=O)cc1`, at Tryptase, the concentration for half-maximal inhibition (IC50) came out at 170 nM.

Turning to `O=C(Nc1ccc(C(=O)OCN2C(=O)c3ccccc3S2(=O)=O)cc1)OCc1ccccc1`, the IC50 against Neutrophil elastase was 2660 nM; against Prothrombin, over 33000 nM; at Tryptase it was 64.3 nM.

Regarding `CC(C)(C)OC(=O)N[C@H](CCCCNC(=O)OCc1ccccc1)C(=O)OCN1C(=O)c2ccccc2S1(=O)=O`, the IC50 against Tryptase came to 12200 nM.

One may read the IC50 as the concentration at which inhibition is half-maximal.
